These results are taken from publication PMC8891053 (Chemistry (Weinheim an der Bergstrasse, Germany), 2022).

Like-named read-outs stand apart in the source and are kept apart here.

For series [1], the system named is adenosine deaminase (ADA). The series is described as follows: ADA-mediated deamination monitored by absorption and emission. The format is biochemical.
For series [2] the following is noted: reported value, cited from earlier work.
The mark [3] stands for this setting: Abs: monitored by absorption, first order fit.
Where [4] appears, read: Em: monitored by emission, first order fit.

As to `Nc1ncnc2c1ncn2[C@@H]1O[C@H](CO)[C@@H](O)[C@H]1O` [A, adenosine], in series [1] (setting [3]), the kapp was 120 ± 10 × 10^−4 s^−1 and the t1/2 is 0.57 ± 0.01 × 10^2 s. Moreover, the half-life in series [1] (adenosine deaminase (ADA) enzyme reaction) is 57 s. For the same compound, the pKa in series [2] (first pKa) is listed as 3.6–4.2.

As to `Nc1nc2c(ncn2[C@@H]2O[C@H](CO)[C@@H](O)[C@H]2O)c(=O)[nH]1` [G, guanosine], the pKa is 3.2–3.3 in series [2] (first pKa) and 9.2–9.6 in series [2] (second pKa).

For the compound `Nc1ncnc2c([C@@H]3O[C@H](CO)[C@@H](O)[C@H]3O)snc12` [^tzA], the kapp in series [1] (setting [3]) and in series [1] (setting [4]) was 220 ± 10 × 10^−4 s^−1 in each case. Besides, the t1/2 was 0.32 ± 0.02 × 10^2 s in series [1] (setting [3]), 0.31 ± 0.02 × 10^2 s in series [1] (setting [4]), 32 ± 2 s in series [1] (calculated from absorption spectroscopy data) and 31 ± 2 s in series [1] (calculated from changes in emission spectra).

Turning to `O=c1ccn([C@@H]2O[C@H](CO)[C@@H](O)[C@H]2O)c(=O)[nH]1` [uridine], the pKa in series [2] (first pKa) is reported as 9.20–9.25.

As a reminder, the half-life is the time in which the quantity being followed falls by half. A low value points to fast loss.
